According to ChEMBL document CHEMBL1201862, “PubChem BioAssay data set” (2004):
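Five compound concentrations were applied to cells in 96-well plates for 48 hours; endpoints were derived by simple linear interpolation of the resulting dose-response curve. GI50: concentration for 50% inhibition of growth.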 Activity calls are given as the source filed them. No stated cut-off is given here; in the data, active = GI50 up to about 1.1 µM and inactive = higher.

Tests used:
Experiment in all cases: growth of human tumour cells (NCI), 48 h
CAKI-1 = system: CAKI-1
K562 = system: K562
DU-145 = system: DU-145
U-251 = system: U-251
TK-10 = system: TK-10
UACC-257 = system: UACC-257
SK-MEL-5 = system: SK-MEL-5
SK-MEL-2 = system: SK-MEL-2
SNB-19 = system: SNB-19
HOP-62 = system: HOP-62
Hs-578T = system: Hs-578T
SR = system: SR
MDA-N = system: MDA-N
SK-OV-3 = system: SK-OV-3
UACC-62 = system: UACC-62
SN12C = system: SN12C
HCT-116 = system: HCT-116
HOP-92 = system: HOP-92
786-0 = system: 786-0
MCF7 = system: MCF7

Measured: GI50

Cc1ccc(Nc2nnc(-c3ccc4c(c3)OCO4)o2)c(C)c1
inactive: CAKI-1 > 100 µM | K562 > 100 µM | DU-145 > 100 µM | U-251 39.2 µM | TK-10 > 100 µM | UACC-257 > 100 µM | SK-MEL-5 > 100 µM | SK-MEL-2 > 100 µM | SNB-19 40.2 µM | HOP-62 > 100 µM | Hs-578T > 100 µM | SR 31.1 µM | MDA-N > 100 µM | SK-OV-3 > 100 µM | UACC-62 32.8 µM | SN12C > 100 µM | HCT-116 > 100 µM | HOP-92 41.9 µM | 786-0 41.4 µM | MCF7 38.8 µM

CN1CCN(Cc2nc3cccc4c3c([n+]2[O-])-c2ccccc2-4)CC1
inactive: CAKI-1 25.5 µM | K562 29.6 µM | DU-145 14.9 µM | U-251 20 µM | TK-10 43.5 µM | UACC-257 24.4 µM | SK-MEL-5 19.1 µM | SK-MEL-2 23.1 µM | SNB-19 16.9 µM | HOP-62 30 µM | Hs-578T 34.9 µM | SR 4.19 µM | MDA-N 12.6 µM | SK-OV-3 59.3 µM | UACC-62 24.9 µM | SN12C 11.7 µM | HCT-116 4.41 µM | HOP-92 36 µM | 786-0 14.4 µM | MCF7 12.8 µM

CCCCCCCCCCCCCCCCCc1nc(C#N)c(N)o1
inactive: CAKI-1 19.9 µM | K562 22.7 µM | DU-145 > 100 µM | U-251 44.2 µM | TK-10 > 100 µM | UACC-257 > 100 µM | SK-MEL-5 > 100 µM | SK-MEL-2 > 100 µM | SNB-19 73.8 µM | HOP-62 > 100 µM | Hs-578T 20.8 µM | SR 7.89 µM | MDA-N > 100 µM | SK-OV-3 > 100 µM | UACC-62 > 100 µM | SN12C 61 µM | HCT-116 > 100 µM | HOP-92 74.5 µM | 786-0 23.3 µM | MCF7 > 100 µM

O=C1NC(=O)/C(=C/c2ccc(S(=O)(=O)N/N=C\C(O)C(O)C(O)C(O)CO)cc2)N1 (stereo not given)
inactive: CAKI-1 > 100 µM | K562 > 100 µM | DU-145 > 100 µM | U-251 > 100 µM | TK-10 > 100 µM | UACC-257 > 100 µM | SK-MEL-5 > 100 µM | SK-MEL-2 > 100 µM | SNB-19 > 100 µM | HOP-62 > 100 µM | Hs-578T > 100 µM | SR > 100 µM | MDA-N > 100 µM | SK-OV-3 > 100 µM | UACC-62 > 100 µM | SN12C > 100 µM | HCT-116 > 100 µM | HOP-92 > 100 µM | 786-0 > 100 µM | MCF7 > 100 µM

CCOC(=O)/C=C(\C(=O)OCC)n1cc(C)c(=O)n(Cc2cnnn2CCCCOC(C)=O)c1=O
inactive: CAKI-1 3.23 µM | K562 2.64 µM | DU-145 > 41.7 µM | U-251 17.3 µM | TK-10 5.94 µM | UACC-257 15.7 µM | SK-MEL-5 17.1 µM | SK-MEL-2 22.1 µM | SNB-19 25.4 µM | HOP-62 27 µM | Hs-578T 17 µM | SR 1.9 µM | MDA-N 20.3 µM | SK-OV-3 > 62.4 µM | UACC-62 15 µM | SN12C 12.1 µM | HCT-116 6.53 µM | HOP-92 2.1 µM | 786-0 2.96 µM | MCF7 4.78 µM

CCCCCCCCCCCCCCCC(=O)N(CCCCCCCCCCC(=O)O)CC(O)C(O)C(OC1OC(CO)C(O)C(O)C1O)C(O)CO (stereo not given)
inactive: CAKI-1 64 µM | K562 22.5 µM | DU-145 91 µM | U-251 18 µM | TK-10 > 100 µM | UACC-257 22 µM | SK-MEL-5 33.5 µM | SK-MEL-2 19 µM | SNB-19 24.5 µM | HOP-62 23.5 µM | Hs-578T 40.5 µM | SR 29.1 µM | MDA-N 34.7 µM | SK-OV-3 54.7 µM | UACC-62 18.9 µM | SN12C 20.5 µM | HCT-116 49.2 µM | HOP-92 41.3 µM | 786-0 74.5 µM | MCF7 53.6 µM
